Measured values taken from patent publication US6737383B1, “Herbicidal oxadiazolidines” (priority 1999, dated 2004).

How the values were obtained:
corn = assay: Test C postemergence corn; type: in vivo, Zea mays; conditions: 0 to 100 scale, 0 no effect, 100 complete control
Procedure, shortened: (§1)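 Soil: sandy loam/potting mix 60:40. Treatment: postemergence, solvent + surfactant formulation. Readout: visual control score 0–100 vs untreated at ~14–21 days.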

field bindweed = assay: Test C postemergence field bindweed; type: in vivo, Convolvulus arvensis; conditions: 0 to 100 scale, 0 no effect, 100 complete control
Procedure, shortened: as §1

hairy beggarticks = assay: Test C postemergence hairy beggarticks; type: in vivo, Bidens pilosa; conditions: 0 to 100 scale, 0 no effect, 100 complete control
Procedure, shortened: as §1

ladysthumb smartweed = assay: Test C postemergence ladysthumb smartweed; type: in vivo, Polygonum persicaria; conditions: 0 to 100 scale, 0 no effect, 100 complete control
Procedure, shortened: as §1

redroot pigweed = assay: Test C postemergence redroot pigweed; type: in vivo, Amaranthus retroflexus; conditions: 0 to 100 scale, 0 no effect, 100 complete control
Procedure, shortened: as §1

soybean = assay: Test C postemergence soybean; type: in vivo, Glycine max; conditions: 0 to 100 scale, 0 no effect, 100 complete control
Procedure, shortened: as §1

common poppy = assay: Test E common poppy; type: in vivo, Papaver rhoeas; conditions: Postemergence; for Plant response rating, Comnion poppy: Rate 125 g/ha
Procedure, shortened: (§2)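 Compounds formulated in non-phytotoxic solvent mixture with surfactant; for postemergence, sprayed on plants at 1- to 4-leaf stage grown in 60:40 sandy loam/greenhouse potting mix. Kept in greenhouse ~21 to 28 days, then visually rated against untreated controls.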

rape = assay: Test E rape; type: in vivo, Brassica napus; conditions: Postemergence
Procedure, shortened: as §2

scentless chamomile = assay: Test E scentless chamomile; type: in vivo, Matricaria inodora; conditions: Postemergence
Method: Compounds evaluated in this test were formulated in a non-phytotoxic solvent mixture which included a surfactant and applied to plants that were in the 1- to 4-leaf stage (postemergence application). A mixture of sandy loam soil and greenhouse potting mix in a 60:40 ratio was used for the postemergence test.
Plantings of these crops and weed species were adjusted to produce plants of appropriate size for the postemergence test. All plant species were grown using normal greenhouse practices. Crop and weed species include annual bluegrass (Poa annua), blackgrass (Alopecurus myosuroides), black nightshade (Solanum nigra), chickweed (Stellaria media), common poppy (Papaver rhoeas), deadnettle (Lamium amplexicaule), downy brome (Bromus tectorum), field violet (Viola arvensis), galium (Galium aparine), green foxtail (Setaria viridis), Italian ryegrass (Lolium multiflorum), jointed goatgrass (Aegilops cylindrica), kochia (Kochia scoparia), lambsquarters (Chenopodium album), littleseed canarygrass (Phalaris minor), rape (Brassica napus), redroot pigweed (Amaranthus retroflexus), Russian thistle (Salsola kali), scentless chamomile (Matricaria inodora), spring barley (Hordeum vulgare), sugar beet (Beta vulgaris), sunflower (Helianthus annuus), ivyleaf speedwell (Veronica hederaefolia), spring wheat (Triticum aestivum), winter wheat (Triticum aestivum), wild buckwheat (Polygonum convolvulus), wild mustard (Sinapis arvensis), wild oat (Avena fatua), windgrass (Apera spica-venti) and winter barley (Hordeum vulgare).
Treated plants and untreated controls were maintained in a greenhouse for approximately 21 to 28 days, after which all treated plants were compared to untreated controls and visually evaluated. […] A dash response (-) means no test result.

[1] = Rate 250 g/ha, 0 to 100 scale (0 no effect, 100 complete control)
[2] = Rate 500 g/ha, 0 to 100 scale, 0 no effect, 100 complete control
[3] = Rate 250 g/ha, 0 to 100 scale where 0 is no effect and 100 is complete control

| SMILES | Plant response rating, Corn (corn; Rate 140 g/ha) | Plant response rating, Corn (corn; Rate 280 g/ha) | Plant response rating, Corn (corn; Rate 560 g/ha) | Plant response rating, Corn (corn; Rate 1120 g/ha) | Plant response rating Field bindweed (field bindweed; Rate 140 g/ha) | Plant response rating Field bindweed (field bindweed; Rate 280 g/ha) | Plant response rating Field bindweed (field bindweed; Rate 560 g/ha) | Plant response rating Field bindweed (field bindweed; Rate 1120 g/ha) | Plant response rating H. beggarticks (hairy beggarticks; Rate 280 g/ha) | Plant response rating H. beggarticks (hairy beggarticks; Rate 560 g/ha) | Plant response rating H. beggarticks (hairy beggarticks; Rate 1120 g/ha) | Plant response rating Ladysthumb (ladysthumb smartweed; Rate 280 g/ha) | Plant response rating Ladysthumb (ladysthumb smartweed; Rate 560 g/ha) | Plant response rating, Redroot pigweed (redroot pigweed; Rate 140 g/ha) | Plant response rating, Redroot pigweed (redroot pigweed; Rate 1120 g/ha) | Plant response rating, Soybean (soybean; Rate 140 g/ha) | Plant response rating, Soybean (soybean; Rate 280 g/ha) | Plant response rating, Soybean (soybean; Rate 560 g/ha) | Plant response rating, Soybean (soybean; Rate 1120 g/ha) | Plant response rating, Comnion poppy (common poppy; 0 to 100 scale) | also measured |
| --- | --- | --- | --- | --- | --- | --- | --- | --- | --- | --- | --- | --- | --- | --- | --- | --- | --- | --- | --- | --- | --- |
| CC(C)N(C(=O)n1oc(=O)n(C(C)C)c1=O)c1ccc(F)cc1F [Compound 109] | 0 | 0 | 5 | 55 | 0 | 0 | 10 | 10 | 5 | 70 | 85 | 10 | 30 | 0 | 85 | 35 | 70 | 85 | 85 | 30 | Plant response rating Ladysthumb (ladysthumb smartweed; Rate 1120 g/ha): 95; Plant response rating, Redroot pigweed (redroot pigweed; Rate 280 g/ha): 40; Plant response rating, Redroot pigweed (redroot pigweed; Rate 560 g/ha): 70; Plant response rating, Common poppy (common poppy; [1]): 10; Plant response rating, Common poppy (common poppy; [2]): 10; Plant response rating, Rape (rape; Rate 125 g/ha, 0 to 100 scale): 50; Plant response rating, Rape (rape; [1]): 50; Plant response rating, Rape (rape; [2]): 60; Plant response rating, Scentless chamo (scentless chamomile; Rate 125 g/ha, 0 to 100 scale): 0; Plant response rating, Scentless chamo (scentless chamomile; [1]): 0; Plant response rating, Scentless chamo (scentless chamomile; [2]): 10 |
| C=CCn1c(=O)on(C(=O)N(c2ccc(F)cc2)C(C)C)c1=O [Compound 146] | 0 | 0 | 5 | 50 | 0 | 0 | 0 | 0 | 20 | 85 | 85 | 10 | 85 | 0 | 20 | 40 | 50 | 60 | 85 | 10 | Plant response rating H. beggarticks (hairy beggarticks; Rate 140 g/ha): 10; Plant response rating Ladysthumb (ladysthumb smartweed; Rate 140 g/ha): 0; Plant response rating, Common poppy (common poppy; Rate 62 g/ha, 0 to 100 scale): 60; Plant response rating, Common poppy (common poppy; [2]): 10; Common poppy plant response rating (common poppy; [3]): 0; Plant response rating, Rape (rape; Rate 62 g/ha, 0 to 100 scale): 60; Plant response rating, Rape (rape; Rate 125 g/ha, 0 to 100 scale): 40; Plant response rating, Rape (rape; [2]): 60; Rape plant response rating (rape; [3]): 50; Plant response rating, Scentless chamo (scentless chamomile; Rate 62 g/ha, 0 to 100 scale): 20; Plant response rating, Scentless chamo (scentless chamomile; Rate 125 g/ha, 0 to 100 scale): 10; Plant response rating, Scentless chamo (scentless chamomile; [2]): 10; Scentless chamo plant response rating (scentless chamomile; [3]): 10 |
